# Experimental data taken from patent US20250215039A1, “NUCLEOSIDES FOR TREATING CANCER” (PRIMEFOUR THERAPEUTICS, INC., priority 2022, published 2025).
# Where two headings read alike, the source gives them in different places.
# System: cancer cell lines
# Assay: Cancer cell proliferation activity (CellTiterGlo, 72 h)
# Type: cell-based
# Details: 72 h, 72 h, read-out: IC50 cell proliferation
# Description: Dose response relationships on cell proliferation was assessed for representative Compounds of the Disclosure on cancer cell lines. Briefly, compound treatment of cells started one day after seeding with a final DMSO concentration of 0.1%, and was performed by nanodrop-dispensing using a Tecan Dispenser. 0.1% DMSO (solvent) and Staurosporine (10 μM) served as high control (100% viability) and low control (0% viability), respectively.
# Cells were cultured in the appropriate media. For the assays, cells were seeded in white cell culture-treated flat and clear bottom multiwell plates and incubated at 37° C. overnight before compound was added. After incubation for 72 h at 37° C. at 5% or 10% CO2 dependent on the medium, cell plates were equilibrated to room temperature for one hour, CellTiterGlo reagent (Promega) was added and luminescence was measured approximately an hour later using a luminometer.
# Raw data were converted into percent cell viability relative to the high and low control, which were set to 100% and 0%, respectively.
# The IC50 values are summarized in Tables 9A-1, Table 10A, and Table 10B.
# [1] = Homo sapiens, A204, 72 h, A204 (muscle)
# [2] = Homo sapiens, ACHN, ACHN (kidney)
# [3] = Homo sapiens, ASPC1, 72 h, ASPC1 (pancreas)
# [4] = Homo sapiens, BXPC-3, 72 h, BXPC3 (pancreas)
# [5] = Homo sapiens, Caco-2, 72 h, CACO2 (colon)
# [6] = Homo sapiens, Granta-519, 72 h, GRANTA-519 (hematological)
# [7] = Homo sapiens, Kasumi 1, 72 h, KASUMI-1 (hematological)
# [8] = Homo sapiens, LoVo, LOVO (colon)
# [9] = Homo sapiens, MDA-MB-231, 72 h, MDAMB231 (breast)
# [10] = Homo sapiens, MDA-MB-436, 72 h, MDAMB436 (breast)
# [11] = Homo sapiens, MINO, MINO (hematological)
# [12] = Homo sapiens, SK-BR-3, 72 h, SKBR3 (breast)
Structure (SMILES),IC50 (5637 (bladder)) [µM],IC50 [1] [µM],IC50 [2] [µM],IC50 [3] [µM],IC50 [4] [µM],IC50 [5] [µM],IC50 [6] [µM],IC50 [7] [µM],IC50 [8] [µM],IC50 [9] [µM],IC50 [10] [µM],IC50 [11] [µM],IC50 [12] [µM],"IC50 (NCI-H358M, NCIH358M (lung)) [µM]"
"Nc1nc(F)nc2c1ncn2[C@H]1C[C@H](O)[C@](CO)(C2CC2)O1 [Cpd. No. 5, (2R,3S,5R)-5-(6-amino-2-fluoro-9H-purin-9-yl)-2-cyclopropyl-2-(hydroxymethyl)tetrahydrofuran-3-ol]",4.93,2.32,3.67,2.62,> 50,7.85,> 50,1.4,2.75,> 50,2.9,1.75,1.06,1.98
"N#C[C@]1(CO)O[C@@H](n2cc(F)c(=O)[nH]c2=O)C[C@@H]1O [Cpd. No. 107, (2R,3S,5R)-5-(5-fluoro-2,4-dioxo-3,4-dihydropyrimidin-1(2H)-yl)-3-hydroxy-2-(hydroxymethyl)tetrahydrofuran-2-carbonitrile]",2.22,> 50,3.84,1.58,1,> 50,1.86,> 50,> 50,> 50,> 50,2.34,0.97,> 50
"C#C[C@]1(CO)O[C@@H](n2cc(Cl)c(N)nc2=O)C[C@@H]1O [Cpd. No. 109, 4-amino-5-chloro-1-((2R,4S,5R)-5-ethynyl-4-hydroxy-5-(hydroxymethyl)tetrahydrofuran-2-yl)pyrimidin-2(1H)-one]",0.01,4.02,1.26,2.93,0.5,3.28,0.92,1.69,2.54,0.4,3.49,0.37,0.98,0.01
"C[C@]1(CO)O[C@@H](n2cnc3c(O)nc(N)nc32)C[C@@H]1O [Cpd. No. 115, 2-amino-9-((2R,4S,5R)-4-hydroxy-5-(hydroxymethyl)-5-methyltetrahydrofuran-2-yl)-9H-purin-6-ol]",7.01,0.63,2.81,> 50,> 50,> 50,2.22,2.13,> 50,3.4,4.09,1.72,3.45,1.07
"Nc1nc(F)nc2c1ncn2[C@H]1C[C@H](O)[C@](CO)(CC2CC2)O1 [Cpd. No. 130, (2R,3S,5R)-5-(6-amino-2-fluoro-9H-purin-9-yl)-2-(cyclopropylmethyl)-2-(hydroxymethyl)tetrahydrofuran-3-ol]",2.06,1.71,3.83,0.62,3.28,1.5,5.22,0.21,0.49,> 50,0.53,0.3,0.12,0.93
"CC[C@]1(CO)O[C@@H](n2cnc3c(O)nc(N)nc32)C[C@@H]1O [Cpd. No. 223, 2-amino-9-((2R,4S,5R)-5-ethyl-4-hydroxy-5-(hydroxymethyl)tetrahydrofuran-2-yl)-9H-purin-6-ol]",> 50,1.83,> 50,> 50,> 50,> 50,1.4,1.46,> 50,6.28,> 50,2.7,> 50,2.96
"C#C[C@]1(CO)O[C@@H](n2cnc3c(=O)[nH]c(N)nc32)[C@H](F)[C@@H]1O [compound 95, 2-amino-9-((2R,3R,4R,5R)-5-ethynyl-3-fluoro-4-hydroxy-5-(hydroxymethyl)tetrahydrofuran-2-yl)-1,9-dihydro-6H-purin-6-one]",3.9,1.35,> 50,4.62,> 50,> 50,4.44,1.63,> 50,1.69,3.85,2.54,> 50,1.59
"O=c1[nH]c(=O)n([C@H]2C[C@H](O)[C@@H](CO)O2)cc1F [compound 185, 5-fluoro-1-((2R,4S,5R)-4-hydroxy-5-(hydroxymethyl)tetrahydrofuran-2-yl)pyrimidine-2,4(1H,3H)-dione]",0.001,0.077,0.004,0.005,0.002,0.116,0.002,0.024,0.007,0.076,0.006,0.004,0.001,0.012
